± gives the standard deviation of the averaged measurements.
Assays:
Conditions in all cases: 72 h
HepG2 [1] = test: cell viability relative to DMSO; higher = less toxic
Vero E6 [2] = test: as above
U2OS [3] = test: as above
Calu-3 [4] = test: as above
Caco-2 [5] = test: as above
HepG2 [6] = test: relative viability EC50 (midpoint between 100% and the lowest measured viability); higher = less toxic
Vero E6 [7] = test: as above
U2OS [8] = test: as above
Calu-3 [9] = test: as above
Caco-2 [10] = test: as above
HepG2 [11] = test: drug sensitivity score (DSS) for viability; higher = more toxic; extreme values may be limits of the assay
Vero E6 [12] = test: as above
U2OS [13] = test: as above
Calu-3 [14] = test: as above
Caco-2 [15] = test: as above

Compound	cell viability (HepG2 [1]; 1 nM) [%]	cell viability (HepG2 [1]; 10 nM) [%]	cell viability (HepG2 [1]; 100 nM) [%]	cell viability (HepG2 [1]; 1000 nM) [%]	cell viability (HepG2 [1]; 10000 nM) [%]	cell viability (Vero E6 [2]; 1 nM) [%]	cell viability (Vero E6 [2]; 10 nM) [%]	cell viability (Vero E6 [2]; 100 nM) [%]	cell viability (Vero E6 [2]; 1000 nM) [%]	cell viability (Vero E6 [2]; 10000 nM) [%]	cell viability (U2OS [3]; 1 nM) [%]	cell viability (U2OS [3]; 10 nM) [%]	cell viability (U2OS [3]; 100 nM) [%]	cell viability (U2OS [3]; 1000 nM) [%]	cell viability (U2OS [3]; 10000 nM) [%]	cell viability (Calu-3 [4]; 1 nM) [%]	cell viability (Calu-3 [4]; 10 nM) [%]	cell viability (Calu-3 [4]; 100 nM) [%]	cell viability (Calu-3 [4]; 1000 nM) [%]	cell viability (Calu-3 [4]; 10000 nM) [%]	cell viability (Caco-2 [5]; 1 nM) [%]	cell viability (Caco-2 [5]; 10 nM) [%]	cell viability (Caco-2 [5]; 100 nM) [%]	cell viability (Caco-2 [5]; 1000 nM) [%]	cell viability (Caco-2 [5]; 10000 nM) [%]	relative viability EC50 (HepG2 [6]) [µM]	relative viability EC50 (Vero E6 [7]) [µM]	relative viability EC50 (U2OS [8]) [µM]	relative viability EC50 (Calu-3 [9]) [µM]	relative viability EC50 (Caco-2 [10]) [µM]	drug sensitivity score (HepG2 [11])	drug sensitivity score (Vero E6 [12])	drug sensitivity score (U2OS [13])	drug sensitivity score (Calu-3 [14])	drug sensitivity score (Caco-2 [15])
CCCN1CCC[C@@H]2Cc3nc(N)ncc3C[C@H]21 [quinelorane]	95.9	94.1	97.6	91.8	96.4	102	99.6	101	93.2	99	103	105	102	97.1	98.5	102	99	93.2	103	105	101	92.9	98.6	85.7	104	> 10	> 10	> 10	> 10	> 10	0	0	0	0	0
COc1ccc(C2CNC(=O)C2)cc1OC1CCCC1 (stereo not given) [rolipram]	102 ± 3.5	102 ± 6.4	101 ± 5.8	106 ± 5.5	101 ± 2.2	93.6 ± 10	95.1 ± 8.9	94.4 ± 4.2	96.8 ± 4.5	102 ± 4.8	96.2 ± 1.5	97 ± 4.4	96.1 ± 2.3	99.1 ± 0.14	101 ± 2.9	98.2 ± 12	97.6 ± 12	103 ± 5.5	98.4 ± 3.5	103 ± 1.6	95.2 ± 7.2	96.4 ± 2.8	97.7 ± 5.3	98.8 ± 7.4	110 ± 4.9	> 10	> 10	> 10	> 10	> 10	0	0.0667 ± 0.12	0	0	0
COc1cccc(CCc2ccccc2OCC(CN(C)C)OC(=O)CCC(=O)O)c1 (stereo not given) [sarpogrelate]	109	104	105	92.5	102	105	98.6	104	100	95.8	100	105	99.8	103	95.3	96.5	98.3	96.4	102	96.9	92.1	101	98.4	105	98.2	> 10	> 10	> 10	> 10	> 10	0	0	0	0	0
